Reference: ChEMBL document CHEMBL1857833, “Screening and optimization of specific chemical series against human African Trypanosomiasis (HAT)”
Values after ≈ are worked out from the molar mass of the structure shown. Values joined by “and” are separate entries in the source; they are usually repeats but may differ in a detail not shown here. Identical values can stand only once.

tested on: Trypanosoma brucei; assay: DNDI: Inhibition of Human African Trypanosomiasis, SBRI 427, in vitro; assay type: functional, organism-based; conditions: not given

SMILES | IC50
CC(NCc1coc(-c2cccc3ccccc23)n1)C1CCCCC1 (stereo not drawn) | 1.7 µg/mL (≈ 5.08 µM)
CCOc1ccc(-c2nc(CNC(C)C3CCCCC3)co2)cc1 (stereo not drawn) | 1.96 µg/mL (≈ 5.97 µM)
CCN(CCN(C)C)Cc1coc(-c2ccc(C(C)(C)C)cc2)n1 | 1.87 µg/mL (≈ 5.68 µM)
CCOc1ccccc1-c1nc(CNC2CCCCCCCCCCC2)co1 | 1.37 µg/mL (≈ 3.56 µM)

The remaining lines, values ahead:

IC50 | SMILES
1.78 µg/mL and 4.05 µg/mL | CCOc1cccc(-c2nc(CNCCC3CCCN3C)co2)c1 (stereo not drawn)
1.83 µg/mL (≈ 5.71 µM) | CCC1CCCCN1Cc1coc(-c2cccc3ccccc23)n1 (stereo not drawn)
1.95 µg/mL (≈ 5.01 µM) | C[C@@H]1C(NCc2coc(-c3ccccc3Br)n2)C[C@H]2C[C@@H]1C2(C)C (stereo partly drawn)
2.86 µg/mL (≈ 9.52 µM) | CC(C)(C)CNCc1coc(-c2ccc(C(C)(C)C)cc2)n1

same assay, conditions: Trypanosoma brucei, SBRI 427; read-out: IC50

SMILES | IC50 [µg/mL]
C[C@H]1C(NCc2coc(-c3cccs3)n2)C[C@@H]2C[C@H]1C2(C)C (stereo partly drawn) | 2.27 (≈ 7.17 µM)
CC1CCC(N/C(=N\O)c2ccc(Oc3ccc(Cl)cc3)nc2)CC1 (stereo not drawn) | 1.42 (≈ 3.95 µM)
CC(NCc1coc(-c2cccc3ccccc23)n1)C1CCCCC1 (stereo not drawn) | 1.34 (≈ 4.01 µM)
O/N=C(\NC1CCCC1)c1ccnc(Oc2cccc(F)c2)c1 | 2.27 (≈ 7.2 µM)
CCOc1ccc(-c2nc(CNC(C)C3CCCCC3)co2)cc1 (stereo not drawn) | 1.44 (≈ 4.38 µM)
O/N=C(\NCC1CCCCC1)c1ccc(Oc2ccc(-n3ccnc3)cc2)nc1 | 1.43 (≈ 3.65 µM)
Cc1ccc(Oc2cc(/C(=N/O)N3CCCCCC3)ccn2)c(C)c1 | > 5
Cc1ccc2cccc(Oc3cc(/C(=N/O)NC4CCC(C)CC4)ccn3)c2n1 (stereo not drawn) | 4.86 (≈ 12.4 µM)
CC1CCc2ccccc2N1/C(=N\O)c1cccnc1Oc1ccc(-n2cncn2)cc1 (stereo not drawn) | 0.73 (≈ 1.71 µM)
COc1ccc(-c2nc(CNCCCN3CCCCC3C)co2)cc1 (stereo not drawn) | > 5
CC(C)c1cccc(Oc2ccc(/C(=N/O)N(C)Cc3cccnc3)cn2)c1 | 2.5 (≈ 6.64 µM)
Cc1ccc(Oc2ccc(/C(=N/O)NC3CCCC3)cn2)c(C)c1 | 21.8 (≈ 66.9 µM)
Cc1ccc(/C(=N/O)N(C)c2ccccc2)c(Oc2cccc(F)c2)n1 | 1.34 (≈ 3.81 µM)
CCC(C)(C)N/C(=N\O)c1ccc(Oc2cc(C)cc(C)c2)nc1 | 2.36 (≈ 7.21 µM)
O/N=C(\NCC1CCCCC1)c1ccnc(Oc2cccc3c2CCCC3)c1 | 5 (≈ 13.2 µM)
O/N=C(\NCc1c(F)cccc1F)c1cccnc1Oc1ccc(F)cc1 | 2.18 (≈ 5.84 µM)
Cc1cc(C)cc(Oc2nc(C)ccc2/C(=N/O)N2c3ccccc3CCC2C)c1 (stereo not drawn) | 1.6 (≈ 3.98 µM)
COc1ccccc1CN/C(=N\O)c1ccc(C)nc1Oc1cc(Cl)ccc1Cl | 3.98 (≈ 9.21 µM)
C[C@H]1C(NCc2coc(-c3cccc(F)c3)n2)C[C@@H]2C[C@H]1C2(C)C (stereo partly drawn) | 1.56 (≈ 4.75 µM)
O/N=C(\NC1CCC1)c1cccnc1Oc1ccccc1OCc1ccccc1 | 1.39 (≈ 3.57 µM)
COc1cccc(-c2nc(CNC34C[C@H]5C[C@@H](C3)C[C@@H](C4)C5)co2)c1 | > 5
Cc1ccc(Oc2ncccc2/C(=N/O)NCc2ccccc2)c2c1CCC2 | 1.28 (≈ 3.43 µM)
O/N=C(\NC1CCC1)c1ccnc(Oc2cc(Cl)ccc2Cl)c1 | 0.6 (≈ 1.7 µM)
CCN(CCN(C)C)Cc1coc(-c2ccc(C(C)(C)C)cc2)n1 | 3.09 (≈ 9.38 µM)
CCOc1ccccc1-c1nc(CNC2CCCCCCCCCCC2)co1 | 1.51 (≈ 3.93 µM)

Now from value to molecule:

IC50 [µg/mL] | SMILES
1.26 (≈ 3.56 µM) | CCC(CC)N/C(=N\O)c1ccc(Oc2cccc3c2CCCC3)nc1
3.79 (≈ 10.4 µM) | O/N=C(\NC1CCCCC1)c1ccnc(Oc2ccc(F)c(Cl)c2)c1
> 5 | Cc1ccc(-c2nc(Cn3nc(N)cc3C)co2)cc1
> 5 | CN(/C(=N\O)c1ccnc(Oc2ccc(F)c(Cl)c2)c1)C1CCCCC1
> 5 | Cc1ccc(/C(=N/O)NCC2CCCO2)c(Oc2cc(Cl)ccc2Cl)n1 (stereo not drawn)
1.23 (≈ 4.08 µM) | O/N=C(\NCC1CC1)c1cccnc1Oc1ccc(F)cc1
0.35 (≈ 1.12 µM) | COc1ccccc1Oc1ncccc1/C(=N/O)NCC1CC1
2.2 (≈ 6.29 µM) | O/N=C(\NC1CCCC1)c1ccnc(Oc2ccc(F)c(Cl)c2)c1
2.18 (≈ 7.48 µM) | CC(C)COc1ncccc1/C(=N/O)NC1CCCCC1
1.86 (≈ 5.43 µM) | Cc1ccc([C@@H](C)NCc2coc(-c3cccc4ccccc34)n2)cc1
3.01 (≈ 8.62 µM) | COc1ccc(Oc2ncccc2/C(=N/O)NCc2ccccc2)cc1
2.93 (≈ 8.29 µM) | Cc1cc(C)cc(Oc2ccc(/C(=N/O)NC3CCC(C)CC3)cn2)c1 (stereo not drawn)
> 5 | CCN(CC)CCCC(C)NCc1coc(-c2ccccc2Cl)n1 (stereo not drawn)
1.31 (≈ 3.85 µM) | COc1ccc(-c2nc(CNC[C@@H]3CC[C@H]4C[C@@H]3C4(C)C)co2)cc1
0.59 (≈ 1.79 µM) | CCC(CC)N/C(=N\O)c1cccnc1Oc1ccccc1OC
2.13 (≈ 6.65 µM) | CCC1CCCCN1Cc1coc(-c2cccc3ccccc23)n1 (stereo not drawn)
1.58 (≈ 4.45 µM) | O/N=C(\NCc1c(F)cccc1F)c1cccnc1Oc1ccccc1
4.8 (≈ 14.6 µM) | COc1ccc(Oc2cc(/C(=N/O)NCC(C)(C)C)ccn2)cc1
1.6 (≈ 4.11 µM) | CCC(C)(C)N/C(=N\O)c1ccc(Oc2ccc3oc4ccccc4c3c2)nc1
> 5 | CCC(CC)N/C(=N\O)c1ccc(C)nc1Oc1ccc(F)c(Cl)c1
2.4 (≈ 6.94 µM) | O/N=C(\NC1CCCCC1)c1ccnc(Oc2ccc(Cl)cc2)c1
2.99 (≈ 7.37 µM) | CCOc1ccccc1CN/C(=N\O)c1ccc(C)nc1Oc1ccc(C)cc1C
0.31 (≈ 0.882 µM) | O/N=C(\NC1CCCC1)c1ccc(Oc2cccc3c2CCCC3)nc1
1.32 (≈ 3.98 µM) | O/N=C(\NC1CCCC1)c1ccc(Oc2ccc(Cl)cc2)nc1
2.36 (≈ 6.49 µM) | COc1ccc(Oc2ncccc2/C(=N/O)NCc2ccccc2C)cc1
0.67 (≈ 1.67 µM) | Cc1ccc(/C(=N/O)NC2CCCC2)c(Oc2ccc3oc4ccccc4c3c2)n1
40.8 (≈ 126 µM) | CCc1ccc(Oc2ccc(/C(=N/O)NC3CCCC3)cn2)cc1
0.4 (≈ 1.05 µM) | Cc1ccc(/C(=N/O)NC2CCCC2)c(Oc2cc(Cl)ccc2Cl)n1
1.22 (≈ 3.13 µM) | C[C@@H]1C(NCc2coc(-c3ccccc3Br)n2)C[C@H]2C[C@@H]1C2(C)C (stereo partly drawn)
1.62 (≈ 5.39 µM) | CC(C)(C)CNCc1coc(-c2ccc(C(C)(C)C)cc2)n1
